From patent US20050031537A1, “Multifunctional COX-2 inhibitors” (priority 2002, published 2005)

Tests used:
[1] = system: HER-2/neu; experiment: Western blotting for expression of HER-2/neu (test (b)); format: cell-based, human; settings: positive in 184B5/HER, BT474 and SKBR3 cells; 24 h; Western blot
Description: (§1) We turn now to the criterion (b), that is at least 50% decrease in level of or 50% downregulation of expression of Class I family of receptors tyrosine kinase. The Class I family of receptors tyrosine kinase is described in Reese, M. D., et al Stem Cells 15, pages 1-8 (1997), the whole of which in incorporated herein by reference. Members of the family include HER-2/neu, HER-3, HER-4 and epidermal growth factor receptor (EGFR) and are single-chain membrane spanning proteins which have significant homology to one another including about 80% amino acid identity in the tyrosine kinase domain.
HER-2/neu (erbB-2) gene product is a 185-kDA transmembrane receptor tyrosine kinase that is described in some detail in said Reese et al publication and overexpression thereof has been associated with tumor growth in several kinds of cancer.
(§2) To evaluate the expression of Class I family of receptors tyrosine kinase (EGFR, HER-2/neu), Western blotting can be performed. Antibodies for EGFR and HER-2/neu can be obtained from Santa Cruz Biotechnology, Inc.
(§3) Expression of EGFR (performed in 184B5, 184B5/HER, 1483, LNCaP, HeLa and CaSki cells)and HER-2/neu (performed in 184B5/HER, SKBR3 and BT474 cells) was assessed in cells after treatment with test compound for 24 hours. 5×10^6 cells were used for the treatment. Western blotting technique was used to assess the expression levels in cells treated with the test compound compared to vehicle alone. Western blotting was carried out as follows:
(§4) Cell lysates were prepared by treating cells with lysis buffer (150 mM NaCl, 100 mM Tris (pH 8.0), 1% Tween 20, 50 mM diethyldithiocarbamate, 1 mM EDTA, 1 mM phenylmethylsulfonyl fluoride, 10 μg/ml aprotinin, 10 μg/ml trypsin inhibitor and 10 μg/ml leupeptin). Lysates were sonicated for 20 s on ice and centrifuged at 10,000×g for 10 min to sediment the particulate material. The protein concentration of the supernatant was measured by the method of Lowry, O. H., et al., J. Biol. Chem. 193, 265-275 (195 1). SDS/PAGE was performed under reducing conditions on 10% polyacrylamide gels as described by Laemmli, U.K., Nature (Lond.) 227, 680-685 (1970). The resolved proteins were transferred onto nitrocellulose sheets as detailed by Towbin, H. et al., Proc. Natl. Acad. Sci. USA 76, 4350-4354 (1979). The nitrocellulose membrane was then incubated with anti-EGFR antiserum or anti-HER-2/neu antiserum. Secondary antibody to IgG conjugated to horseradish peroxidase was used. The various antisera were purchased from Santa Cruz Biotechnology, Inc., CA. The blots were probed with the Renaissance Western blot detection system according to the manufacturer's instructions (PerkinElmer Life Sciences, Boston, Mass.).

[2] = Patient with cervical intraepithelial neoplasia, HPV 16 detected (Example VIII); format: in vivo, human; settings: person, 0.5% in a cream on sponge/cervical cap, six months
Description: A person presents to their gynecologist for evaluation. […] On biopsy, the patient is found to have cervical intraepithelial neoplasia. HPV 16 is detected. […] The SC-236 is discontinued with no recurrence of cervical intraepithelial neoplasia.

[3] = Patient with atherosclerosis (Example VI); format: in vivo, human; settings: person one, 200 mg bid
Description: patient one presents with symptoms of chest discomfort on exertion and is diagnosed with atherosclerosis. […] The progression of the atherosclerosis stops.

[4] = system: HPV16 oncoproteins E6 and E7; experiment: Western and Northern blotting for HPV16 oncoproteins E6 and E7 (test (d)); format: cell-based, human papillomavirus; settings: positive in CaSki and SiHa cells
Description: We turn now to the criterion (d), that is at least 50% downregulation of expression of HPV16 oncoproteins E6 and E7.
Protein E6 and E7 which are expressed by HPV16 are believed to play a major role in carcinogenesis.
Western blotting and Northern blotting techniques were used to evaluate the expression of HPV E6 and E7 proteins. The cell lines used for the study were CaSKi and SiHa. The cells were treated with the test compound and cell lysate was obtained as described above and subjected to Western blotting analysis. The Western blotting analysis was performed as described above except anti-HPV 16 E7 antibody was used to probe the blot. The antibody was obtained from Santa Cruz Biotechnology, Inc. CA. For Northern blotting, total cellular RNA was isolated from cell monolayers using an RNA isolation kit from QIAGEN Inc. after treatment with the test compound. 10 μg of total cellular RNA per lane were electrophoresed in a formaldehyde-containing 1.2% agarose gel and transferred to nylon-supported membranes. After baking, membranes were prehybridized overnight in a solution containing 50% formamide, 5×sodium chloride-sodium phosphate-EDTA buffer (SSPE), 5×Denhardt's solution, 0.1% SDS and 100 μg/ml single-stranded salmon sperm DNA and then hybridized for 12 h at 42° C. with radiolabeled cDNA probes for human HPV16 E6 or E7 cDNAs and 18S rRNA. E6 and E7 (as described in Woodworth, C. D., Cancer Res. 16, 4397-4402 (2000)) and 18S rRNA probes were labeled with [^32P]-CTP by random priming. After hybridization, membranes were washed twice for 20 min at room temperature in 2×SSPE-0.1% SDS, twice for 20 min in the same solution at 55° C., and twice for 20 min in 0.1×SSPE-0.1% SDS at 55° C. Washed membranes were then subjected to autoradiography.

[5] = system: PPRE luciferase; experiment: PPRE luciferase activation, transient transfection reporter assay (test (a)); format: cell-based, human; settings: positive in 184B5, 184B5/HER, HCA7, HCT116, SKBR3 and BT474 cells; 24 h treatment
Description: We turn now to criterion (a), that is activation of PPRE luciferase by at least 100%. PPRE-luciferase refers to a DNA construct containing the peroxisome proliferator activated receptor (PPAR) binding element joined to luciferase. Cells are transfected with PPRE-luciferase DNA. Ligands of PPAR induce luciferase activity. The ability of a test compound to stimulate PPRE-luciferase signifies that the test compound activates PPAR-mediated gene transcription. PPRE means peroxisome proliferator response element and the method by which PPRE-luciferase is constructed is described in Schoonjans, K., et al, J. Biol. Chem. 270, No. 33, 19269-19276 (Aug. 18, 1995). Use of PPRE-luciferase in a transient transfection to measure increase in promoter activity is disclosed in Subbaramaiah, K. et al, J. Biol. Chem. 270, No. 15, 12440-12448 (Apr. 13, […]).
For each well, 1.8 μg of PPRE3-tk-luciferase construct plasmid DNA (described in Forman, B. M., et al, Cell 83, 803 (1995)) plus 0.2 μg of pSV-β-galactosidase were introduced into cells using 8 μg of LipofectAMINE as per the manufacturer's instructions (Invitrogen, CA). After 7 h of incubation, the medium was replaced with basal medium. After transfection, cells were treated with test compound for 24 h. Reporter activities which include luciferase and β-galactosidase were measured in cellular extract 24 h later. Six wells were used for each of the conditions. Luciferase activity represents data that have been normalized with β-galactosidase.
The luciferase assay was performed as per the BD Pharmingen assay reagents. The Enhanced Luciferase Assay Kit provides a firefly luciferase substrate formulation (Substrates A and B) and cell lysis buffer intended for use in measuring luciferase expressed by transfected cells. Media from cell culture plates was removed and rinsed twice with phosphate buffered saline. Enough 1X cell lysis buffer was added to cover cells and incubated at room temperature for 15-20 min. Cells were dislodged by scraping and transferred to microcentrifuge tubes. […] 20-100 μl cell extract was placed into an assay cuvette. One automatic injector type luminometer is used for assay. Manually 100 μl of Substrate A was added to the assay cuvette and automatically 100 μl of Substrate B was injected. Measurements were performed using a luminometer, for a measurement time of 10 seconds.
The β-galactosidase assay was performed as follows:
50 μl of cell lysate from above was incubated with 50 μl of o-nitrophenyl-β-D-galactoside (ONPG; 4 mg/mL) in Z buffer, (Na2HPO4.7H2O (0.06M), NaH2PO4.H2O (0.04M), 1M KCl (0.01M), 1M MgSO4 (0.001M), β-mercaptoethanol (BME) (0.05M) pH 7.0). The reaction was stopped after sufficient yellow color has developed. The yellow color developed is measured at A420 […].

[6] = system: EGFR; experiment: Western blotting for expression of EGFR (test (b)); format: cell-based, human; settings: positive in 184B5, 184B5/HER, 1483, LNCaP, HeLa and CaSki cells; 24 h; Western blot
Description: as §1
Epidermal growth factor receptor (EGFR) is a 170 kDA glycoprotein. […] After ligand binding, EGFR undergoes dimerization which is essential for activation of its enzymatic kinase activity. EGFR is thus autophospliorylated and transphosphorylated on tyrosine residues, and the phosphorylated residues become the site of association of effector proteins. Overexpressed EGFR is intimately involved in modulating the epidermal growth factor growth signal and is considered as likely to confer a growth advantage. This conclusion is supported by the observation that tumor growth in nude mice is inhibited by treatment with anti-EGFR antibodies and tumorigenicity in nude mice is inhibited through blockage of the tyrosine kinase activity of the receptor.
as §2, §3, §4

[7] = system: Nrf-2; experiment: Western and Northern blotting for expression of Nrf-2 (test (g)); format: cell-based, human; settings: positive in 184B5, 184B5/HER, HCA7, HCT116, SKBR3, BT474 and CaSki cells
Description: We turn now to criterion (g), i.e. at least 50% increase in expression of Nrf-2. […] 13, 2001).
Western blotting and Northern blotting techniques were used to evaluate the expression of Nrf-2. The expression of Nrf-2 was evaluated in HCA7, HCT116, SKBR3, CaSki, 184B5/HER, 184B5 and BT474 cells. 5×10^6cells were used to treat either vehicle alone or the test compound. The Western blotting analysis was performed as described above except anti-Nrf-2 antibody was used to probe the blot. The antibody was obtained from Santa Cruz Biotechnology, Inc. CA. Northern blotting for Nrf-2 was performed as described above and cDNA for Nrf-2 as described in Gong, P., et al., J.Biol Chem 20; 276:27018-27025 (2001) was used as a probe.

[8] = system: cyclin D1; experiment: Western blotting for expression of cyclin D1 (test (c)); format: cell-based, human; settings: positive in 184B5, 184B5/HER cells; 24 h; Western blot
Description: Cyclin D1 is a protein that is important in regulating cell proliferation and is described in Ortega, S., et al, Biochimica et Biophysica Acta 1602, 73-87, (2002), the whole of which is incorporated by reference. […] Effects on expression of cyclin D1 was investigated in 184B5, 184B5/HER, HCA7, HCT116, SKBR3 and BT474 cells. The expression was assessed in cells after treatment with test compound or vehicle using 5×10^4 cells for 24 hours. Western blotting technique was used as follows to assess the expression levels of cyclin D1 in cells treated with the test compound and compared to levels in cells treated with vehicle alone. Cell lysates were prepared by treating cells with lysis buffer as described above. […] The resolved proteins were transferred onto nitrocellulose sheets. The nitrocellulose membrane was then incubated with anti-cyclin D1 antiserum. Secondary antibody to IgG conjugated to horseradish peroxidase was used. The various antisera were purchased from Santa Cruz Biotechnology, Inc., CA. The blots were probed with the Renaissance Western blot detection system according to the manufacturer's instructions (PerkinElmer Life Sciences, Boston, Mass.).

## COc1ccc(-n2nc(C(F)(F)F)cc2-c2ccc(Cl)cc2)cc1 [SC-560, 5-(4-chlorophenyl)-1-(4-methoxyphenyl)-3-(trifluoromethyl)-1H-pyrazole]
[1]
  Test (b) HER-2/neu: at least 50% decrease in level of or 50% downregulation of expression: + (A plus sign in the table indicates a positive result, that is meeting the test for each cell line as indicated above as providing a positive result)
[2]
  repeat biopsy finding of cervical intraepithelial neoplasia: no evidence of cervical intraepithehal neoplasia
[3]
  progression of the atherosclerosis: stops
[4]
  Test (d) at least 50% downregulation of expression of HPV16 oncoproteins E6 and E7: + (A plus sign in the table indicates a positive result, that is meeting the test for each cell line as indicated above as providing a positive result)

## COc1ccc2c(c1)c(CC(=O)Nc1ccc(NC(C)=O)cc1)c(C)n2C(=O)c1ccc(Cl)cc1 [Indomethacin Analog 5]
[5]
  Test (a) activation of PPRE luciferase by at least 100%: + (A plus sign in the table indicates a positive result, that is meeting the test for each cell line as indicated above as providing a positive result)
[6]
  Test (b) EGFR: at least 50% decrease in level of or 50% downregulation of expression: + (A plus sign in the table indicates a positive result, that is meeting the test for each cell line as indicated above as providing a positive result)
[7]
  Test (g) at least 50% increase in expression of Nrf-2: + (A plus sign in the table indicates a positive result, that is meeting the test for each cell line as indicated above as providing a positive result)
[8]
  Test (c) at least 50% downregulation of expression of cyclin D1: + (A plus sign in the table indicates a positive result, that is meeting the test for each cell line as indicated above as providing a positive result)
